From US20060252774A1, “Regulation of type 5 adenylyl cyclase for treatment of neurodegenerative and cardiac diseases” (priority 2002, published 2006)
pIC50: −log10 of the molar value. Entries after “also recorded” stand apart in the source; their conditions may differ. One block for each molecule: values may come before it.

Legend:
[1] = target: T1, AC5 (Canis lupus familiaris, UniProt P30803); parameters: made in house; host or cells: High Five insect cells (membranes); conditions: previously reported; potency on AC2 and AC3 remained similar; cited from earlier work
[2] = tested on: H9C2 cells; experiment: cAMP accumulation in H9C2 cells; format: cell-based; conditions: 10 micro M forskolin and isoproterenol; compound 10 micro M
Description: FIG. 10: Effect of NKY80 and HI30435 on cAMP accumulation in H9C2 cells.[:] H9C2 cells were incubated in the presence of 10 micro M forskolin and isoproterenol and NKY80 or HI30435 (10 micro M), followed by cAMP accumulation assays (n=4-5, p<0.01).
(§1) Inventors will first determine the selectivity among the AC isoforms (FIG. 12). […] The IC50 values were calculated to be 0.32 micro M for AC5, 11.1 micro M for AC3, 65.3 micro M for AC2. The selectivity ratio of HI30435 was 207 between AC5 and AC2. […] The selectivity ratio was 18 between AC5 and AC2.

[3] = target: T1, AC5; experiment: AC catalytic activity inhibition, AC5 isoform; format: biochemical; parameters: IC50 for AC5; other: 5 mM MgCl2 with Gsalpha/GTPgammaS/forskolin (50 micro M); other: in the presence of Gsalpha/GTPgammaS/forskolin; other: 10 micro M; conditions: for pIC50: 5 mM MgCl2 with Gsalpha/GTPgammaS/forskolin (50 micro M)
Text: (§2) FIG. 11. […] The relative inhibitory activity versus control (% control activity) for various AC isoforms are shown. Data are means±S.D. of quadruplicate determinations.
(§3) Classic inhibitors of AC include adenosine analogs or P-site inhibitors, and MDL12330A, a non-nucleic acid inhibitor. However, not much was known about the isoform selectivity of these inhibitors. […] It was previously noted that AC2 was less sensitive to THFA than the other isoforms, giving a selectivity ratio of 1.8 when compared between AC6 and AC2.
as §1

[4] = target: T2, AC3 (Rattus norvegicus, UniProt P21932); experiment: AC catalytic activity inhibition, AC3 isoform; format: biochemical; conditions: for pIC50: 5 mM MgCl2 with Gsalpha/GTPgammaS/forskolin (50 micro M)
T2 sequence (P21932 1-1144): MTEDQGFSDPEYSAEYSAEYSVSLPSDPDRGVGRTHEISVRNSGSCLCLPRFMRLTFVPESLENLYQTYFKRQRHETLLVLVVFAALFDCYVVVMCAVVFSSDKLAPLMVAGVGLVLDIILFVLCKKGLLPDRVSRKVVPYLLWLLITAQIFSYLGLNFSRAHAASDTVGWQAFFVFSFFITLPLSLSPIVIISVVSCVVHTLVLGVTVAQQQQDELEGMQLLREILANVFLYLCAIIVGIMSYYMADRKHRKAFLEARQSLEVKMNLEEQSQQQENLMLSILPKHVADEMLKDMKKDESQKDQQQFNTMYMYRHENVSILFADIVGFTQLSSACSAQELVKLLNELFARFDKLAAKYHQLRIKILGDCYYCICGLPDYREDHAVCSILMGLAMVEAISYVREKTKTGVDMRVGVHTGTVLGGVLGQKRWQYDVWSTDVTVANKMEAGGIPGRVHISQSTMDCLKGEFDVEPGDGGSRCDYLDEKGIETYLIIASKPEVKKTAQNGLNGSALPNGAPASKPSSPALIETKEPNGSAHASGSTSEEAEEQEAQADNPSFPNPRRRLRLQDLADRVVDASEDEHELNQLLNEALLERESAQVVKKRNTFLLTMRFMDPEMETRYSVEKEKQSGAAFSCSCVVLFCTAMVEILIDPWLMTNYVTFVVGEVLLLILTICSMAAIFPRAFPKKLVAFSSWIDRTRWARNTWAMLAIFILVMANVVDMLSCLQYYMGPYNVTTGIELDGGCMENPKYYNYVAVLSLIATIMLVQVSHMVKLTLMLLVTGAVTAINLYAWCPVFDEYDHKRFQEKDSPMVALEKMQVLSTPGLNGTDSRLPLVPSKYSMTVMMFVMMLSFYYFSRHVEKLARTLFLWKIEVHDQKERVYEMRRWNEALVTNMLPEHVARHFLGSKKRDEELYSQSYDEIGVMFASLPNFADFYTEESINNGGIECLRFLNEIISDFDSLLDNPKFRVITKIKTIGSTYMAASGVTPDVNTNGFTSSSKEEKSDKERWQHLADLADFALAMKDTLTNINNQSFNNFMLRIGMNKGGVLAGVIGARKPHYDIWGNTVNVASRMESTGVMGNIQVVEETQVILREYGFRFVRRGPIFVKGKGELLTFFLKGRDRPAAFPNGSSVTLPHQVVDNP
Text: (§4) Classic inhibitors of AC include adenosine analogs or P-site inhibitors, and MDL12330A, a non-nucleic acid inhibitor.
(§5) Inventors will first determine the selectivity among the AC isoforms (FIG. 12).

[5] = target: T3, AC2 (Rattus norvegicus, UniProt P26769); experiment: AC catalytic activity inhibition, AC2 isoform; format: biochemical
Text: as §4, §5

[6] = tested on: AC5; experiment: AC catalytic activity inhibition, AC5 isoform; format: biochemical; conditions: for selectivity ratio between AC5 and AC2: inhibition of AC catalytic activity
Text: as §2, §3, §1

[7] = target: AC6 (Homo sapiens, UniProt O43306); conditions: previously noted; cited from earlier work
[8] = tested on: WT and AC5KO mice; experiment: Pole test with dopaminergic agonists; format: in vivo, mouse; conditions: subcutaneous
Description: (§6) FIG. 27. Motor dysfunction in ACD-^−/− mice. Rotarod test (A)—Each mouse was placed on a 3.5-cm diameter rod covered with rubber to evaluate rotarod performance (14). Mice were left for 1 minute on the rod for habituation. The rod rotated gradually increasing from 4 to 40 rpm over the course of 5 min and the time that mice could stay on an accelerating rotarod without failing was recorded. Five trials were conducted for each individual 10-25 min apart within the dark phase of the light/dark cycle. Mice that stayed on the rotarod for >300 sec were considered complete responders, and their latencies were recorded as 300 sec. *p<0.05, relative to ^+/+; ^+/−, n=17-20. Activity tests (B and C)—The tests were performed as previously described (14, 15). Mice were put in the darkened testing room 60 minutes for habituation before testing. Locomotor activity (B) was assessed using an activity monitor equipped with photocell beams (Columbus Instruments, Ohio, USA). The number of photobeam interruptions in each perpendicular axis was recorded and totaled for 5 min. The behavior of the mice was recorded simultaneously by video camera for later analysis, and their rearing actions were counted (C). *p<0.05, relative to ^+/+, n=15-20. Pole test (D)—In order to evaluate bradykinesia, pole test was performed (16). In brief, mice were placed head upward on the top of a rough-surfaced pole (8 mm in diameter and 50 cm in height) that was wrapped with gauze to prevent slipping. The time until it turned completely downward (open bars, Tturn) and the time until it climbed down to the floor (closed bars, TLA) were measured *p<0.01, relative to ^+/+, n=14-17. Means±SEM are shown. Homozygous to (ACD^−/−) (closed circles, ^−/−), heterozygous (shaded circles, ^+/−), and wild type (WT) (open circles, ^+/+).
(§7) FIG. 32. Effect of dopaminergic agonists on motor functions Effects of SKF38393 on locomotor activity (A), rotarod test (B), and pole test (C) were compared. […] In rotarod test, the best performance out of five trials in each individual was evaluated. […]

[9] = tested on: WT and AC5KO mice; experiment: Locomotor activity test with dopaminergic agonists; format: in vivo, mouse; conditions: subcutaneous, SKF38393 25 or 50 mg/kg, cabergoline 0.2 or 1.0 mg/kg
Description: as §6, with “Activity tests (B and C)—The tests were performed as previously described (14, 15). Mice were put in the darkened testing room 60 minutes for habituation before testing.” left out, “Pole test (D)—In order to evaluate bradykinesia, pole test was performed (16). In brief, mice were placed head upward on the top of a rough-surfaced pole (8 mm in diameter and 50 cm in height) that was wrapped with gauze to prevent slipping.” left out, “Means±SEM are shown. Homozygous to (ACD^−/−) (closed circles, ^−/−), heterozygous (shaded circles, ^+/−), and wild type (WT) (open circles, ^+/+).” left out
FIG. 32. […] In rotarod test, the best performance out of five trials in each individual was evaluated. […]

[10] = tested on: WT and AC5KO mice; experiment: Rotarod test with dopaminergic agonists; format: in vivo, mouse; conditions: WT and AC5KO; subcutaneous; 25 or 50 mg/kg
Description: as §6, §7

[11] = tested on: striatal AC; experiment: D1 or D2 receptor agonist-stimulated AC activity in striatal membrane preparations; format: biochemical, mouse; conditions: WT striatal membranes; 1 μM
Description: AC catalytic activity was compared as previously described (15) using the membrane preparations from the striatum, cortex and cerebellum A). AC assays were conducted in the presence of 50 μM forskolin. […] D1 or D2 receptor agonist-stimulated AC activity was also examined (C). […] Each AC catalytic activity was compared to that in the presence of 10 μM GTP alone. Open bars, WT (^+/+); closed bars, AC5KO (^−/−). Means±SEM are shown. *p<0.05, **p<0.01, relative to ^+/+, n=4.
Striatal tissues were dissected from mice and membrane preparations were prepared for AC assays as previously described (10, 11).
We also examined receptor agonist-stimulated AC activity (FIG. 3C).

[12] = target: T3, AC2; experiment: Adenyl cyclase stimulation by forskolin derivatives, High five cell membranes overexpressing type II; format: biochemical; parameters: made in house; host or cells: High Five insect cells (membranes); conditions: 5 mM MgCl2
Description: (§8) FIG. 15: Effect of forskolin, 6[3-(dimethylamino)propionyl]-14,15-dihydroforskolin, and NKH477 on adenyl cyclase [isforms.] isoforms: Forskolin derivatives dose response effect (A-C). High five cell membranes overexpressing type II (A), type III (B), and type V (C) adenyl cyclases. Adenyl cyclase activity was measured in the presence of 5 mM of MgCl2 with various concentrations of forskolin (closed circles), 6[3-(dimethylamino)propionyl]-14,15-dihydroforskolin (D, open triangles) or NKH477 (open circles). Means±SEM from 4 independent experiments are shown. *, p<0.01 differences from the value with forskolin.

[13] = target: T1, AC5; experiment: Adenyl cyclase stimulation by forskolin derivatives, High five cell membranes overexpressing type V; format: biochemical; parameters: made in house; host or cells: High Five insect cells (membranes)
Description: as §8

[14] = target: T2, AC3; experiment: Adenyl cyclase stimulation by forskolin derivatives, High five cell membranes overexpressing type III; format: biochemical; conditions: 5 mM MgCl2
Description: as §8

[15] = in the presence of Gsalpha/GTPgammaS/forskolin

T1 sequence (P30803 whole entry): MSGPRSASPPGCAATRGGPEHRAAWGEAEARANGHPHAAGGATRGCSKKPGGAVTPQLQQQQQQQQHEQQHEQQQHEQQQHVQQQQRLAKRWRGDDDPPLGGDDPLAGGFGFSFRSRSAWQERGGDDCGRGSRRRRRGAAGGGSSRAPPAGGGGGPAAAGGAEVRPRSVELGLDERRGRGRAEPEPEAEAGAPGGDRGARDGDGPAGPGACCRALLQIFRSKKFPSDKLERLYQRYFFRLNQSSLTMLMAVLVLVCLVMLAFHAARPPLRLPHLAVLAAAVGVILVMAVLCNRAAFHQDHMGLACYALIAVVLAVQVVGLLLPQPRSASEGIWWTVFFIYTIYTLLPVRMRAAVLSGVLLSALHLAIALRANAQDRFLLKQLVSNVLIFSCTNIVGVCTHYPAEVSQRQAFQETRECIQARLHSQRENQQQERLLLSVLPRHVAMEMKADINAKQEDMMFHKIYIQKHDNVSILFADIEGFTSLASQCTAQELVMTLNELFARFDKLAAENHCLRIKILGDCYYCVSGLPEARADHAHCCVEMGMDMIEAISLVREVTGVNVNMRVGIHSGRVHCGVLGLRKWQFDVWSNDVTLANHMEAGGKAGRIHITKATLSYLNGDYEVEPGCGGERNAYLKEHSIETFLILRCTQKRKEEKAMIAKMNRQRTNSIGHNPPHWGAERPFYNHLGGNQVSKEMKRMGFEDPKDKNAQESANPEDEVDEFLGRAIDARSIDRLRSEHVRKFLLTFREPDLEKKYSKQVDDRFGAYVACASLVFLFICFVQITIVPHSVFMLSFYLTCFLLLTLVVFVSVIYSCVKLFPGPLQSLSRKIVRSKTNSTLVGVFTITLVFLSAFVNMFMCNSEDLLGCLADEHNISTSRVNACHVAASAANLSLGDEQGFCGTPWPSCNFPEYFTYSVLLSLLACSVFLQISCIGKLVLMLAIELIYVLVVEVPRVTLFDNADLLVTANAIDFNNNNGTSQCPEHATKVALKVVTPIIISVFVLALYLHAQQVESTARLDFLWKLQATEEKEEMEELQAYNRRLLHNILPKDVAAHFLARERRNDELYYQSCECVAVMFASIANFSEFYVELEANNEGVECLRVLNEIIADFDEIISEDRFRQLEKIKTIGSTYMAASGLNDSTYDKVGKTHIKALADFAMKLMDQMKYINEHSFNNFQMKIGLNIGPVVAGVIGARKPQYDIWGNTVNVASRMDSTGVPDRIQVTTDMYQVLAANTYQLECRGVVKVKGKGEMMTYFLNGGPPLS
T3 sequence (P26769 whole entry, canonical isoform): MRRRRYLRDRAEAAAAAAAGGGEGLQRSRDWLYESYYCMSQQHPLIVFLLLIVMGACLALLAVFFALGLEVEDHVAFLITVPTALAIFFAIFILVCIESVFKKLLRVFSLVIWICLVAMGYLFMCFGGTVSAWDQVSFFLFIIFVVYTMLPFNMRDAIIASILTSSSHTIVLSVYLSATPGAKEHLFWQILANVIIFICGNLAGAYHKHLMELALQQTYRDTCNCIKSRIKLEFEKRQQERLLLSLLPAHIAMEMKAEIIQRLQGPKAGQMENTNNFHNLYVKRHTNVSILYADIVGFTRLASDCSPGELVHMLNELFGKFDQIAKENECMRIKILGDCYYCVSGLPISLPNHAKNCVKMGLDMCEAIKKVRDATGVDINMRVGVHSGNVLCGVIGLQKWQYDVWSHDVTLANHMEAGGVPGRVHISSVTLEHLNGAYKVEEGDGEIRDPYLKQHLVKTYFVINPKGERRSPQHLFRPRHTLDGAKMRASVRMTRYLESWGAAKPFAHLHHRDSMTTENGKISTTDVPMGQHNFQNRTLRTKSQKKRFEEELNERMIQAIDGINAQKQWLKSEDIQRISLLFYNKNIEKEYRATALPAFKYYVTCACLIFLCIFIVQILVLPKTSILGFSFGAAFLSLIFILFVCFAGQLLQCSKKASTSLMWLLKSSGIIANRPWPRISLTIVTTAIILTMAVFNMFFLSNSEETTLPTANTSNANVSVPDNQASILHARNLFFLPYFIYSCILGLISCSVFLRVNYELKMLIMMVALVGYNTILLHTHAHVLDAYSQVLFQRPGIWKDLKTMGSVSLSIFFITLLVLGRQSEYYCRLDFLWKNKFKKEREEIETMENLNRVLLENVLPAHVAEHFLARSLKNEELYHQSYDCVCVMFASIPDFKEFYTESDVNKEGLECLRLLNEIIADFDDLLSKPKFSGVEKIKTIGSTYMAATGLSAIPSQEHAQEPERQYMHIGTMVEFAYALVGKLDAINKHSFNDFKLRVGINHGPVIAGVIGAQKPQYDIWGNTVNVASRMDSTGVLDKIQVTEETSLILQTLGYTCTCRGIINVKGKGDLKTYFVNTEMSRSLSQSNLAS
Chain of AC6 (O43306 whole entry): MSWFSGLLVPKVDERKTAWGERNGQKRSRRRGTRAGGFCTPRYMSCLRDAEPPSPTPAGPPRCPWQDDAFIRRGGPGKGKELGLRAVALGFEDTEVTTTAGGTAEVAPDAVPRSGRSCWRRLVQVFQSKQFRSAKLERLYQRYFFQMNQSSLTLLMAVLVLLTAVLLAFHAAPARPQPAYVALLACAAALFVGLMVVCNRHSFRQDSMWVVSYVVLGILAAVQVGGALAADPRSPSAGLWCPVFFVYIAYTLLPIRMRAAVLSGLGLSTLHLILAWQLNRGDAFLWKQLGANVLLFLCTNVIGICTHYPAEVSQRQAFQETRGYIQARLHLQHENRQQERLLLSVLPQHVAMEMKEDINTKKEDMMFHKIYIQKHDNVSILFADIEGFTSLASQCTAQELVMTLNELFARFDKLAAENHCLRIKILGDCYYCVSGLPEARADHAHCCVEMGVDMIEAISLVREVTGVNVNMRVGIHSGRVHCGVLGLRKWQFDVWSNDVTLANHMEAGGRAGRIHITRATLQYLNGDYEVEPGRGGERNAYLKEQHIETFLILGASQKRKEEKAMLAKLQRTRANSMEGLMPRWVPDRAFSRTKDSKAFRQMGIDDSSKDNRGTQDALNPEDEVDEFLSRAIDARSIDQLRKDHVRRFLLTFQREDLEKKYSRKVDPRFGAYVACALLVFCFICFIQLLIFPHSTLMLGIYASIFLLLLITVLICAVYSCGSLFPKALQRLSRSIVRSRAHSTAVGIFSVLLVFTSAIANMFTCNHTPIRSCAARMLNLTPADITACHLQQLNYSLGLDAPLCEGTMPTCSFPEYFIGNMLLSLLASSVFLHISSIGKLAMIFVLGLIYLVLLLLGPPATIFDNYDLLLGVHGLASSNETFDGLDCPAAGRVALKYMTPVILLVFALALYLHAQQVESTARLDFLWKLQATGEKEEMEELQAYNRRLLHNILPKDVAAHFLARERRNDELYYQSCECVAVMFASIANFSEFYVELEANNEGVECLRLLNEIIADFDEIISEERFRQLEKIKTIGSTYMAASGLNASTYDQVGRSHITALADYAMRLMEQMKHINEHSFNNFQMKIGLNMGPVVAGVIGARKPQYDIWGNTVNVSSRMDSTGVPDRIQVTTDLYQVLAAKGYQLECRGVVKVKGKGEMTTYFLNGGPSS

- pIC50 [3]: 5.66
- inhibition of AC5 (in words) [3, 15]: potently inhibited AC5
- pIC50 [4]: 4.00
- inhibition of AC3 (in words) [4, 15]: only to a modest degree
- pIC50 ([5]; 5 mM MgCl2 with Gsalpha/GTPgammaS/forskolin (50 micro M)): 3.55
- inhibition of AC2 (in words) [5, 15]: only to a modest degree
Compound: Nc1ncnc2c1ncn2C1CCCO1 (centres unmarked) [THFA, 9-(tetrahydro-2-furyl)adenine]
- selectivity ratio between AC5 and AC2 [6]: 130
- selectivity ratio between AC6 and AC2 [7]: 1.8

- stimulation of AC activity, increase over that with 10 μM GTP [11]: 40.7±2.6%
Compound: Oc1cc2c(cc1O)C(c1ccccc1)CNCC2 (centres unmarked) [SKF38393]
- pole test performance [8]: improved pole test performance
- locomotor activity [9]: increased locomotor activity in both WT and AC5KO
- rotarod performance [10]: did not improve rotarod performance in both WT and AC5KO

Second part, the molecule before the results:

Compound: C=C[C@@]1(C)CC(=O)[C@]2(O)[C@@]3(C)[C@@H](O)CCC(C)(C)[C@@H]3[C@H](OC(=O)CCN(C)C)[C@H](OC(C)=O)[C@@]2(C)O1 [NKH477]
- stimulation of AC5 (in words) [1]: enhanced stimulation of AC5

Compound: Nc1ncc2c(n1)CC(c1ccco1)CC2=O (centres unmarked) [NKY80, 2-amino-7-(2-furanyl)-7,8-dihydro-5(6H)-quinazolinone]
- cAMP accumulation in H9C2 cells [2]: but not NKY80, inhibited cAMP accumulation; also recorded: did not
- pIC50 [3]: 5.08
- pIC50 [4]: 3.88
- pIC50 ([5]; Gsalpha/GTPgammaS/forskolin): 2.77
- mode of inhibition ([6]; Lineweaver-Burk plot analysis): not competitive with respect to ATP or forskolin
- selectivity ratio between AC5 and AC2 [6]: 210

Compound: CCC1(C)CC(=O)C2(O)C(C)(O1)C(OC(C)=O)C(OC(=O)CCN(C)C)C1C(C)(C)CCC(O)C12C (centres unmarked) [6-3(dimethylaminopropionyl]-14,15-dihydroforskolin]
- relative potency of stimulation versus forskolin, AC2 [12]: 66%
- relative potency of stimulation versus forskolin, AC5 ([13]; 5 mM MgCl2): 139%
- AC5 selectivity of stimulation (in words) ([13]; forskolin derivatives): further enhancement in selectivity for AC5
- relative potency of stimulation versus forskolin, AC3 [14]: 31%
